# What was measured:
# Type in all cases: ADME
# Cytochrome P450 3A5 = Cytochrome P450 3A5 (Homo sapiens, UniProt P20815); experiment: Drug metabolism assessed as human recombinant CYP3A5-mediated 6-Hydroxymethylexemestane formation rate per pmol of enzyme at 10 uM after 10 mins
# Cytochrome P450 2C9 [1] = molecular target: T1, Cytochrome P450 2C9 (Homo sapiens, UniProt P11712); experiment: Drug metabolism assessed as human recombinant CYP2C9-mediated 6-Hydroxymethylexemestane formation at 10 uM after 10 mins by Michaelis-Menten saturation curve analysis; conditions: recombinant enzyme
# Liver microsome [2] = experiment: Drug metabolism in human liver microsomes assessed as 6-hydroxymethylexemestane formation at 10 uM after 10 mins by LC-MS/MS analysis
# Cytochrome P450 2C19 [3] = molecular target: T2, Cytochrome P450 2C19 (Homo sapiens, UniProt P33261); experiment: Drug metabolism assessed as human recombinant CYP2C19-mediated 6-Hydroxymethylexemestane formation at 10 uM after 10 mins by Michaelis-Menten saturation curve analysis; conditions: recombinant enzyme
# Cytochrome P450 2C19 [4] = molecular target: T2, Cytochrome P450 2C19; experiment: Drug metabolism assessed as human recombinant CYP2C19-mediated 6-Hydroxymethylexemestane formation rate per pmol of enzyme at 10 uM after 10 mins
# Cytochrome P450 2B6 [5] = molecular target: T3, Cytochrome P450 2B6 (Homo sapiens, UniProt P20813); experiment: Drug metabolism assessed as human recombinant CYP2B6-mediated 6-Hydroxymethylexemestane formation rate per pmol of enzyme at 10 uM after 10 mins
# T3 sequence (P20813 whole entry): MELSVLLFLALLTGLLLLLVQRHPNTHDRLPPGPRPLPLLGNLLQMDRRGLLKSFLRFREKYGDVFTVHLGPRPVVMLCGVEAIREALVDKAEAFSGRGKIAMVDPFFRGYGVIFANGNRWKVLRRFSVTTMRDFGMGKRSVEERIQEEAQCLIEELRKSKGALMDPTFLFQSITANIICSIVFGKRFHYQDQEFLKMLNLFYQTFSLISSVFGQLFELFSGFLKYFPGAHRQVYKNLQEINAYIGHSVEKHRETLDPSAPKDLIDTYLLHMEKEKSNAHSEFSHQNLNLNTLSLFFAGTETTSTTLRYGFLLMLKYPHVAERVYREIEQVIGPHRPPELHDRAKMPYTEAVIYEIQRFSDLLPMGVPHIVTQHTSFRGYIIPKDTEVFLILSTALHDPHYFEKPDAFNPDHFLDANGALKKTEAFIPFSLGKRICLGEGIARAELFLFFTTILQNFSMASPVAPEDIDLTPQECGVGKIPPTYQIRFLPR
# Cytochrome P450 2B6 [6] = molecular target: T3, Cytochrome P450 2B6; experiment: Drug metabolism assessed as human recombinant CYP2B6-mediated 6-Hydroxymethylexemestane formation at 10 uM after 10 mins by Michaelis-Menten saturation curve analysis; conditions: recombinant enzyme
# Liver microsome [7] = experiment: Drug metabolism in human liver microsomes assessed as retention time treated with 300 uM of exemestane after 10 mins by HPLC with UV analysis
# Cytochrome P450 1A1 = molecular target: T4, Cytochrome P450 1A1 (Homo sapiens, UniProt P04798); experiment: Drug metabolism assessed as human recombinant CYP1A1-mediated 6-Hydroxymethylexemestane formation rate per pmol of enzyme at 10 uM after 10 mins
# T4 sequence (P04798 whole entry): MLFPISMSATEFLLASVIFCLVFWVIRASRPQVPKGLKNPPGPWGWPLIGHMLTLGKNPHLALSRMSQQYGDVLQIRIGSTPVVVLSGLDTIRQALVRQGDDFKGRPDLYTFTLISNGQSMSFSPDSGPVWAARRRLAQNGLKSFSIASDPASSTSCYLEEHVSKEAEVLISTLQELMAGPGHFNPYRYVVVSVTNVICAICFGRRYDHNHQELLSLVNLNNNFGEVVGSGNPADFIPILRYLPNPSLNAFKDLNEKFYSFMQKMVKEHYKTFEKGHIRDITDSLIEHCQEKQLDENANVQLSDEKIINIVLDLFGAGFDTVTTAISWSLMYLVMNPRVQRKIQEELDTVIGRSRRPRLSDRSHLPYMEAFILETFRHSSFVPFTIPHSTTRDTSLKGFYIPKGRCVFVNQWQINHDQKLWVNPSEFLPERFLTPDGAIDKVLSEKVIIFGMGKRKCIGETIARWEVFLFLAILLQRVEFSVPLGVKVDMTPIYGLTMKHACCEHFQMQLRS
# Cytochrome P450 2C9 [8] = molecular target: T1, Cytochrome P450 2C9; experiment: Drug metabolism assessed as human recombinant CYP2C9-mediated 6-Hydroxymethylexemestane formation rate per pmol of enzyme at 10 uM after 10 mins
# Cytochrome P450 2C8 [9] = molecular target: T5, Cytochrome P450 2C8 (Homo sapiens, UniProt P10632); experiment: Drug metabolism assessed as human recombinant CYP2C8-mediated 6-Hydroxymethylexemestane formation rate per pmol of enzyme at 10 uM after 10 mins
# T5 sequence (P10632 whole entry): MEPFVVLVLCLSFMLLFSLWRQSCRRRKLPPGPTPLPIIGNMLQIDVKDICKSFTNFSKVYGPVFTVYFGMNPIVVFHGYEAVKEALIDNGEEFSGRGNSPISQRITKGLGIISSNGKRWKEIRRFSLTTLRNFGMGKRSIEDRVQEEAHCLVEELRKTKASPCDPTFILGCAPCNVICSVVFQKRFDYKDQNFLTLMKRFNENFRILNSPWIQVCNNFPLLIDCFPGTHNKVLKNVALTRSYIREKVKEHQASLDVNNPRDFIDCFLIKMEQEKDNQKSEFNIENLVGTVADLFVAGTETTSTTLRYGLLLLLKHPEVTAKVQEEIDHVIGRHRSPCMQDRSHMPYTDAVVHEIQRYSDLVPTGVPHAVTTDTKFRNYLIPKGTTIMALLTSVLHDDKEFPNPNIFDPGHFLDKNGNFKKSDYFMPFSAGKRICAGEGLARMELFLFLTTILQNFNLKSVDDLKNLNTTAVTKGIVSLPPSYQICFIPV
# Cytochrome P450 2C8 [10] = molecular target: T5, Cytochrome P450 2C8; experiment: Drug metabolism assessed as human recombinant CYP2C8-mediated 6-Hydroxymethylexemestane formation at 10 uM after 10 mins by Michaelis-Menten saturation curve analysis; conditions: recombinant enzyme
# Liver microsome [11] = experiment: Drug metabolism in human liver microsomes assessed as 6-hydroxymethylexemestane formation after 10 mins by Michaelis-Menten saturation curve analysis
# Cytochrome P450 3A4 = Cytochrome P450 3A4 (Homo sapiens, UniProt P08684); experiment: Drug metabolism assessed as human recombinant CYP3A4-mediated 6-Hydroxymethylexemestane formation rate per pmol of enzyme at 10 uM after 10 mins
# Cytochrome P450 2E1 = Cytochrome P450 2E1 (Homo sapiens, UniProt P05181); experiment: Drug metabolism assessed as human recombinant CYP2E1-mediated 17-hydroexemestane and 6-Hydroxymethylexemestane formation assessed as inhibition of metabolite formation at 10 uM after 10 mins by Michaelis-Menten saturation curve analysis in presence of 50 uM diethylthiocarbamate; set-up: interact cpd dose 50 uM; conditions: recombinant enzyme
# Liver microsome [12] = experiment: Drug metabolism in human liver microsomes assessed as retention time at 300 uM after 10 mins by HPLC with UV analysis
# Cytochrome P450 2B6 [13] = molecular target: T3, Cytochrome P450 2B6; experiment: Drug metabolism assessed as human recombinant CYP2B6-mediated 17-hydroexemestane and 6-Hydroxymethylexemestane formation assessed as inhibition of metabolite formation at 10 uM after 10 mins by Michaelis-Menten saturation curve analysis in presence of 5 uM thioTEPA; set-up: interact cpd dose 5 uM; conditions: recombinant enzyme
# Liver microsome [14] = experiment: Drug metabolism in human liver microsomes assessed as retention time at 50 uM after 10 mins by HPLC with UV analysis
# T1 sequence (P11712 whole entry): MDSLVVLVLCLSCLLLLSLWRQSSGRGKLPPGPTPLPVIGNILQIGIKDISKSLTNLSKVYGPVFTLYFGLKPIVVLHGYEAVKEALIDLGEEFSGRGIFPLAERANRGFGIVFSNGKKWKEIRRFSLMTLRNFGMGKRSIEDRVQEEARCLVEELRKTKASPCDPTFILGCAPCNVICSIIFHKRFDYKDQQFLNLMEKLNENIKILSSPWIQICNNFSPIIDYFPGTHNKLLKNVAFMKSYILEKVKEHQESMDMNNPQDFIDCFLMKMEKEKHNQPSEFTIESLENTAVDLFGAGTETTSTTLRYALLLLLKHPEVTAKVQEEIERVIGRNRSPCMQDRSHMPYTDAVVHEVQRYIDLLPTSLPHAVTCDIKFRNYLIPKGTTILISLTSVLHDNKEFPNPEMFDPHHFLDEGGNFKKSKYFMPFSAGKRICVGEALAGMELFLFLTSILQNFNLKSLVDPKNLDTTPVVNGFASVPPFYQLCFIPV
# T2 sequence (P33261 whole entry): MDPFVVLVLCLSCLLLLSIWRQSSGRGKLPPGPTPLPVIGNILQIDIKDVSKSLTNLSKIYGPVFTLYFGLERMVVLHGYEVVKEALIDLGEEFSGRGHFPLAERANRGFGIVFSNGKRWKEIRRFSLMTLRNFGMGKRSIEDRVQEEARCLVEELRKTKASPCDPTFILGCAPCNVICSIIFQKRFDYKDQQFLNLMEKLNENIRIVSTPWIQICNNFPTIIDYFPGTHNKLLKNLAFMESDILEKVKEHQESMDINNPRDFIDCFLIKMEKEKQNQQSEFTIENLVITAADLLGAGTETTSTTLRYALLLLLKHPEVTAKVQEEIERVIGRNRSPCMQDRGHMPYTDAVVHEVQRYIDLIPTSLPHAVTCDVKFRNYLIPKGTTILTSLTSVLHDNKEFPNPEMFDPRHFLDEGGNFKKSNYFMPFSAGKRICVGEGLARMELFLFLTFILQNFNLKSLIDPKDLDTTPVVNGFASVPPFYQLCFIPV
# Chain of Cytochrome P450 2E1 (P05181 whole entry): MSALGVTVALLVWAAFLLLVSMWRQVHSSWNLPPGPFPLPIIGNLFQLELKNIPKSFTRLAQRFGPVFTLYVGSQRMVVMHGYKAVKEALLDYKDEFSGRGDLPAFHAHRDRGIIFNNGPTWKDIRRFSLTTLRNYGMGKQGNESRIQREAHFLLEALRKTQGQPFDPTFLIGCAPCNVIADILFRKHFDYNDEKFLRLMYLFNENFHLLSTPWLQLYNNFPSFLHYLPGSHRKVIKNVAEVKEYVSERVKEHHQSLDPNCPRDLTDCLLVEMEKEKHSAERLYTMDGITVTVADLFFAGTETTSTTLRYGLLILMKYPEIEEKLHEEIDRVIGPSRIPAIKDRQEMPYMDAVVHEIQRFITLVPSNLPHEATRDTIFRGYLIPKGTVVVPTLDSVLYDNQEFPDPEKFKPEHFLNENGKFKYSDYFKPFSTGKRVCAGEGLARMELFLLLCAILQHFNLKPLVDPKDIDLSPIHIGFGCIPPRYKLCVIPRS
# Chain of Cytochrome P450 3A5 (P20815 whole entry): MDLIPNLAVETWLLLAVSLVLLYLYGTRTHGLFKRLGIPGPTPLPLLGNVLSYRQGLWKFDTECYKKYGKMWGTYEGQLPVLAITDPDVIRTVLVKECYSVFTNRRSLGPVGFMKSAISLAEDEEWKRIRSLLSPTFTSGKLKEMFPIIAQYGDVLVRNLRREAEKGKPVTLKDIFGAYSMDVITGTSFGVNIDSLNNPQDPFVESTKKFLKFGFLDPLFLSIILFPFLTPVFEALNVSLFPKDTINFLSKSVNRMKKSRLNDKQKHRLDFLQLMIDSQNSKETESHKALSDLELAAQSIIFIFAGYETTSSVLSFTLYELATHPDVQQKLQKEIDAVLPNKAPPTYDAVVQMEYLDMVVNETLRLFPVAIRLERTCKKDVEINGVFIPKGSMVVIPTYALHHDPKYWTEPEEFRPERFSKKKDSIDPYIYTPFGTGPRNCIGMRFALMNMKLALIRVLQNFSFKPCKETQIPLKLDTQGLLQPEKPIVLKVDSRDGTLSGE
# Chain of Cytochrome P450 3A4 (P08684 whole entry): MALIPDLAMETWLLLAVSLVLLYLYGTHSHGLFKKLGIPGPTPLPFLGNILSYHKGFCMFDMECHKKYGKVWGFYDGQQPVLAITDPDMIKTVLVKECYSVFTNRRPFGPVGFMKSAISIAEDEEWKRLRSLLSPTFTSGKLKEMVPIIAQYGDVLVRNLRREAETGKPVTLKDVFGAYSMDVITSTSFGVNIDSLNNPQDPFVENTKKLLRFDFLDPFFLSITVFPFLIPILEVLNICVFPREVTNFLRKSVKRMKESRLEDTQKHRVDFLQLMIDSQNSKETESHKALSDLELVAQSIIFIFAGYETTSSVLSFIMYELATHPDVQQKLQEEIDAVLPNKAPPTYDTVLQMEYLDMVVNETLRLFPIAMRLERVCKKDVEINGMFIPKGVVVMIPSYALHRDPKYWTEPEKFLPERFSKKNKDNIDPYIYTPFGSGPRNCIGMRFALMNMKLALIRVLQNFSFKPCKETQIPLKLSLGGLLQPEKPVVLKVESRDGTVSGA
structure (smiles),measurement,setting,value
C[C@]12C=CC(=O)C=C1C(CO)=C[C@@H]1[C@@H]2CC[C@]2(C)C(=O)CC[C@@H]12,Drug metabolism,Cytochrome P450 3A5,0.3 pmol/min
same,Drug metabolism,Cytochrome P450 2C9 [1],metabolite_detected
same,Vmax(app),Liver microsome [2],200.47 pmol/mg/min
same,Drug metabolism,Cytochrome P450 2C19 [3],metabolite_detected
same,Drug metabolism,Cytochrome P450 2C19 [4],metabolite_detected
same,Drug metabolism,Cytochrome P450 2B6 [5],0.1 pmol/min
same,Vmax(app),Cytochrome P450 2B6 [6],1.93 pmol/mg/min
same,Km,Cytochrome P450 2B6 [6]; read-out: Km(app),9 µM
same,Retention_time,Liver microsome [7],6.4 min
same,Drug metabolism,Cytochrome P450 1A1,metabolite_detected
same,Drug metabolism,Cytochrome P450 2C9 [8],metabolite_detected
same,Drug metabolism,Cytochrome P450 2C8 [9],metabolite_detected
same,Drug metabolism,Cytochrome P450 2C8 [10],metabolite_detected
same,Vmax(app),Liver microsome [11],781.15 pmol/mg/min
same,Km,Liver microsome [11]; read-out: Km(app),37.1 µM
same,Drug metabolism,Cytochrome P450 3A4,0.42 pmol/min
C=C1C[C@@H]2[C@H](CC[C@]3(C)C(=O)CC[C@@H]23)[C@@]2(C)C=CC(=O)C=C12 [EXEMESTANE],inhibition (INH),Cytochrome P450 2E1,< 20%
same,Retention_time,Liver microsome [12],15.6 min
same,inhibition (INH),Cytochrome P450 2B6 [13],< 20%
C#CC1(O)CC[C@H]2[C@@H]3CCC4=CC(=O)CC[C@@H]4[C@H]3CC[C@@]21CC (stereo not given in full) [NORGESTREL],Retention_time,Liver microsome [14],20.2 min
